Consider one compound from PMC5502112 (Brain research, 2017).

Residue numbers refer to the chain shown, from its start.

Holding throughout (experiment): inside-out patch clamp, HEK293
Common to all, as to format: biochemical
(In patch-clamp work, channel activity is measured electrically.)

The target of experiment [1] is T1, Kir4.1 (Rattus norvegicus, UniProt P49655, E158N).
T1 sequence (P49655 1-379 E158N): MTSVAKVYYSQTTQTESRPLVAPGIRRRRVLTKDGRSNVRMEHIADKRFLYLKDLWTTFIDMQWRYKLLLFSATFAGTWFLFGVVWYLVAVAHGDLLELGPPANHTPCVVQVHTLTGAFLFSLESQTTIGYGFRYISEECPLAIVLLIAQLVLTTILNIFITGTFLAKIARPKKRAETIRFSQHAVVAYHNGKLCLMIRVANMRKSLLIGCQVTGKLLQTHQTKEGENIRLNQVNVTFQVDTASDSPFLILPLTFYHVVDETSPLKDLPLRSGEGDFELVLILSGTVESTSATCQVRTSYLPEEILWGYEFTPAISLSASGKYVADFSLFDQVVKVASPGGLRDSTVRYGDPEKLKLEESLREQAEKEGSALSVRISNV
Conditions: read-out: % inhibition at 10 μM.

In experiment [2] the target is T2, Kir4.1 (Rattus norvegicus, UniProt P49655, T128A).
T2 sequence (P49655 1-379 T128A): T1 sequence (P49655 1-379 E158N) with T128A, N158E
The following applies: read-out: % inhibition at 10 μM.

Experiment [3] has as its target T3, Kir4.1 (Rattus norvegicus, UniProt P49655).
T3 sequence (P49655 1-379): T1 sequence (P49655 1-379 E158N) with N158E

The target in experiment [4] is T4, Kir4.1 (Rattus norvegicus, UniProt P49655, T127A).
T4 sequence (P49655 1-379 T127A): T1 sequence (P49655 1-379 E158N) with T127A, N158E
The following applies: read-out: % inhibition at 10 μM.

Experiment [5] concerns the target T3, Kir4.1. Conditions: read-out: % inhibition at 10 μM.

A word on the inhibition: it is how much of the control response was suppressed. The term IC50 denotes the midpoint of a concentration-inhibition curve.

Consider `CCN(CC)CCCC(C)Nc1c2ccc(Cl)cc2nc2ccc(OC)cc12` (centres unmarked) [quinacrine], for which the inhibition at 10 µM at Kir4.1 [1] is 79.8 ± 2.2%; at Kir4.1 [2], 66.1 ± 1.1%; at Kir4.1 [4], 89.7 ± 1.1%; on Kir4.1 [5], 88.3 ± 1.5%. At Kir4.1 [3], this compound returned an IC50 of 1.8 ± 0.3 µM.
